Experiments:
Format in all cases: in vivo, human
[1] = tested on: adult subjects with schizophrenia; assay: CGI Improvement score, Clinical Study Three; conditions: 15 mg, LOCF
Procedure: CLINICAL STUDY THREE: Table 29 below presents frequencies for the seven categories of CGI Improvement ratings by visit using LOCF for the ITT population. Statistical differences among treatment groups regarding the mean CGI Improvement score were evaluated using a CMH test stratified by pooled center applied to the frequencies of the seven CGI Improvement categories with modified ridit scores. […] The treatment comparison of the 30 mg bifeprunox group versus placebo group was not notable (p=0.162). No notable differences were observed between the placebo group and either of the two bifeprunox dose groups at any other time point during the study (Week 1 through Week 4).

[2] = tested on: adult subjects with schizophrenia; assay: PANSS total score, Clinical Study One (6-week, risperidone-referenced); conditions: for Change from Baseline in PANSS Total Score, Median / Change from Baseline in PANSS Total Score, Mean (S.D.): Risperidone 6 mg, ITT
Procedure: (§1) There were five treatment groups in this study. […] Study medication was administered once daily. After Baseline measurements were performed, the titration phase was begun. Bifeprunox treated subjects were titrated up to 5 mg, 10 mg or 20 mg according to a standardized titration schedule (Day 1: 0.125 mg, Day 2: 0.25 mg, Day 3: 0.5 mg, Day 4: 1.0 mg, Day 5: 2.0 mg, Day 6: 5.0 mg, Day 7: 10.0 mg, Day 8: 20 mg). When the assigned dose was reached, subjects were maintained at that dose for the remainder of the six-week treatment period.
Test Product. Dose and Mode of Administration: Bifeprunox tablets, total daily dose 0.125 mg to 20 mg administered orally using a once daily dosing regimen.
(§2) The change in the Positive and Negative Symptom Scale (PANSS) total score, from baseline to endpoint, was the primary outcome measure. Secondary efficacy measures included: PANSS positive, PANSS negative, PANSS general psychopathology (GPP) score, PANSS-derived Brief Psychiatric Rating Scale (BPRS) score, Clinical Global Impressions-Severity of Illness (CGI-S), CGI-Improvement (CGI-I) scores, and responder rates. Safety and tolerability evaluations included extrapyramidal symptoms (EPS), weight gain, lipid profile, and serum prolactin.

[3] = tested on: adult subjects with schizophrenia; assay: PANSS negative subscale score, Clinical Study One; conditions: Risperidone 6 mg, ITT
Procedure: as §1, §2

[4] = tested on: adult subjects with schizophrenia; assay: PANSS responder rates, Clinical Study One; conditions: Risperidone 6 mg; ITT
Procedure: as §1

[5] = tested on: adult subjects with schizophrenia; assay: SAS, BAS and AIMS movement scales, Clinical Study Two; conditions: Risperidone 6 mg
Procedure: Pharmacokinetic (PK) data of bifeprunox in schizophrenic subjects were also assessed and are presented in a separate report (combined with data from study S1543003).
The SAS is used to measure Parkinsonian-type symptoms in patients exposed to antipsychotics. The scale consists of 10 items, each rated on a 5-point scale ranging from 0 (complete absence of the condition) to 4 (presence of the condition in extreme form). The SAS total score is defined as the sum of all item scores, and the range is 0 to 40. A SAS total score of up to 3 is considered normal.
The BAS is used to rate observable, restless movements of drug-induced akathisia as well as the subjective awareness of restlessness and any distress associated with the akathisia. The scale consists of 3 items that is rated from 0 (no evidence of akathisia) to 3 (severe akathisia). The BAS total score is defined as the sum of the these three BAS item scores and ranges from is 0 to 9. In addition, a global clinical assessment of akathisia is rated from 0 (no evidence of akathisia) to 5 (severe akathisia).
The AIMS, designed to record the occurrence of dyskinetic movements, consists of 12 items. Items 1 to 7 measure specific involuntary movements on a scale from 0 (none) to 4 (severe). Items 8 to 10 measure global assessment of abnormal movement on a scale from 0 (no awareness) to 4 (aware, severe distress). Items 11 and 12 are questions regarding the dental condition of the patient, with yes/no answers. The total score is calculated by summing AIMS items 1 through 10 and ranges from 0 to 40; the non-global total score is calculated by summing items 1 through 7.

## Cc1cc2c(s1)Nc1ccccc1N=C2N1CCN(C)CC1 [Olanzapine, olanzapine, reference compound]
[1]; Week 2
  CGI Improvement Minimally Improved, %: (45%)
  CGI Improvement Minimally Worse, %: (6%)
  CGI Improvement Much Improved, %: (27%)
  CGI Improvement Much Worse, %: (<1%)
  CGI Improvement No Change, %: (18%)
  CGI Improvement Very Much Improved, %: (4%)
[1]; Week 4
  CGI Improvement Minimally Improved, %: (29%)
  CGI Improvement Minimally Worse, %: (7%)
  CGI Improvement Much Improved, %: (36%)
  CGI Improvement Much Worse, %: (3%)
  CGI Improvement No Change, %: (17%)
  CGI Improvement Very Much Improved, %: (7%)
[1]; Week 6/Endpoint
  CGI Improvement Minimally Improved, %: (29%)
  CGI Improvement Minimally Worse, %: (7%)
  CGI Improvement Much Improved, %: (34%)
  CGI Improvement Much Worse, %: (3%)
  CGI Improvement No Change, %: (14%)
  CGI Improvement Very Much Improved, %: (12%)

## Cc1nc2n(c(=O)c1CCN1CCC(c3noc4cc(F)ccc34)CC1)CCCC2 [Risperidone, risperidone, reference compound]
[2]; Endpoint LOCF
  Change from Baseline in PANSS Total Score, Median: −14
[2]; Week 1, LOCF
  Change from Baseline in PANSS Total Score, Mean (S.D.): −8.2 (11.1)
  Change from Baseline in PANSS Total Score, Median: −7
[2]; Week 2, LOCF
  Change from Baseline in PANSS Total Score, Mean (S.D.): −13.1 (13.9)
  Change from Baseline in PANSS Total Score, Median: −12
[2]; Week 3, LOCF
  Change from Baseline in PANSS Total Score, Mean (S.D.): −15.3 (14.1)
  Change from Baseline in PANSS Total Score, Median: −13
[2]; Week 4, LOCF
  Change from Baseline in PANSS Total Score, Mean (S.D.): −14.4 (14.5)
  Change from Baseline in PANSS Total Score, Median: −13
[2]; risperidone 6 mg (Example 4)
  all efficacy measures at endpoint compared to placebo: statistically significant at endpoint compared to placebo for all efficacy measures
[2]; risperidone 6 mg, 6 weeks
  separation of active reference from placebo: showed clear separation from the placebo group
[3]; Endpoint LOCF
  Change from Baseline in PANSS Negative Subscale Score, Mean (S.D.): −3.6 (4.6)
  Change from Baseline in PANSS Negative Subscale Score, Median: −3
[3]; Week 1, LOCF
  Change from Baseline in PANSS Negative Subscale Score, Mean (S.D.): −2.1 (3.5)
  Change from Baseline in PANSS Negative Subscale Score, Median: −1
[3]; Week 2, LOCF
  Change from Baseline in PANSS Negative Subscale Score, Mean (S.D.): −3.0 (4.2)
  Change from Baseline in PANSS Negative Subscale Score, Median: −3
[3]; Week 3, LOCF
  Change from Baseline in PANSS Negative Subscale Score, Mean (S.D.): −3.5 (4.2)
  Change from Baseline in PANSS Negative Subscale Score, Median: −3
[3]; Week 4, LOCF
  Change from Baseline in PANSS Negative Subscale Score, Mean (S.D.): −3.2 (4.3)
  Change from Baseline in PANSS Negative Subscale Score, Median: −3
[4]
  PANSS Responder at Endpoint (LOCF), 20% Definition: 46 (40) n (%)
  PANSS Responder at Endpoint (LOCF), 25% Definition: 34 (29) n (%)
  PANSS Responder at Endpoint (LOCF), 30% Definition: 26 (22) n (%)
  PANSS Responder at Endpoint (LOCF), 35% Definition: 15 (13) n (%)
[5]
  subjects with abnormal SAS scores at Endpoint: 14%

From US20090068290A1, “BIFEPRUNOX DOSES FOR TREATING SCHIZOPHRENIA” (priority 2006, published 2009)
